These results are taken from patent US20080300288A1, “Alkenyldiarylmethanes, Fused Analogs And Syntheses Thereof” (PURDUE RESEARCH FOUNDATION, priority 2005, published 2008).

Data set [1] addresses T1, recombinant HIV-1 RT enzyme (p66/51 dimer) (Human immunodeficiency virus type 1 group M subtype B, UniProt P04585).
T1 construct: recombinant HIV-1 RT enzyme (p66/51 dimer)
Description: RT inhibition assay, incorporation of [32P]GTP into poly(rC)/oligo(dG). The class given is biochemical. On the procedure: RT Inhibition Assay. Analysis of the effects of the compounds on recombinant HIV-1 RT enzyme (p66/51 dimer) was performed as previously described. See, Buckheit, R. W. J.; Fliakas-Boltz, V.; Decker, W. D.; Robertson, J. L.; Stup, T. L.; Pyle, C. […] Antiviral Res. 1995, 26, 117-132, the disclosure of which is incorporated herein by reference. Briefly, inhibition of purified recombinant reverse transcriptase enzyme was measured by the incorporation of [^32P]GTP into poly(rC)/oligo(dG) (rCdG) homopolymer template primers.

The nature of data set [2]: In vitro hydrolytic stability study in rat plasma. The class given is in vitro ADME. The note with it: for Rat Plasma tp1/2 (min ± SD): rat plasma in vitro, half-life; for hydrolysis in rat plasma: 37° C. Here is the method: NMR spectra were obtained at 300 MHz (^1H) and 75 MHz (^13C) in CDCl3 using CHCl3 as internal standard. Flash chromatography was performed with 230-400 mesh silica gel. […] Melting points are uncorrected. Unless otherwise stated, chemicals and solvents were of reagent grade and used as obtained from commercial sources without further purification. Tetrahydrofuran (THF) was freshly distilled from sodium/benzophenone ketyl radical prior to use. Dichloromethane was freshly distilled from calcium hydride prior to use. Lyophilized rat plasma (lot 052K7609) was obtained from Sigma Chemical Co., St. Louis, Mo. All yields given refer to isolated yields.
In vitro Hydrolytic Stability Study in Rat Plasma. […] See, Silvestri, M. A.; Nagarajan, M.; De Clercq, E.; Pannecouque, C.; Cushman, M. Design, Synthesis, Anti-HIV Activities, and Metabolic Stabilities of Alkenyldiarylmethane (ADAM) Non-nucleoside Reverse Transcriptase Inhibitors. J. Med. Chem. 2004, 47, 3149-3162, the disclosure of which is incorporated herein by reference.

Data set [3] in a line: Cytotoxicity in mock-infected CEM-SS cells. It counts as cell-based. The settings on record: human, uninfected (mock-infected) CEM-SS cells. Here is the method: In Vitro Antiviral Assays. Evaluation of the antiviral activity of compounds against HIV-1RF infection in CEM-SS cells was performed using the MTS cytoprotection assay as previously described. See, Rice, W. G.; Bader, J. P. Discovery and in Vitro Development of AIDS Antiviral Drugs as Biopharmaceuticals. Adv. Pharmacol. (San Diego) 1995, 6, 389-438, the disclosure of which is incorporated herein by reference. […] See, Pauwels, R.; Balzarini, J.; Baba, M.; Snoeck, R.; Schols, […].; De […]. Rapid and Automated Tetrazolium-based Colorimetric Assay for Detection of Anti-HIV Compounds. J. Virol. Methods 1988, 20, 309-321, the disclosure of which is incorporated herein by reference.

In a further data set the test system is HIV-1RF. The data set is described as follows: MTS cytoprotection assay, HIV-1RF infection in CEM-SS cells. It counts as cell-based. The note with it: Human immunodeficiency virus 1; HIV-1RF in CEM-SS cells; read-out: EC50 HIV-1RF (inhibition of cytopathicity). Here is the method:
In Vitro Antiviral Assays. Evaluation of the antiviral activity of compounds against HIV-1RF infection in CEM-SS cells was performed using the MTS cytoprotection assay as previously described. See, Rice, W. G.; Bader, J. P. Discovery and in Vitro Development of AIDS Antiviral Drugs as Biopharmaceuticals. Adv. Pharmacol. (San Diego) 1995, 6, 389-438, the disclosure of which is incorporated herein by reference. […] See, Pauwels, R.; Balzarini, J.; Baba, M.; Snoeck, R.; Schols, D.; Herdewijn, P.; Desmyter, J.; De Clercq, E. Rapid and Automated Tetrazolium-based Colorimetric Assay for Detection of Anti-HIV Compounds. J. Virol. Methods 1988, 20, 309-321, the disclosure of which is incorporated herein by reference.
On the technique in general: Tetrazolium dyes change colour on reduction, which living cells bring about.

Structures are written as SMILES.

As for `COC(=O)CCC/C=C(\c1cc(F)cc(C(F)(F)F)c1)c1cc(C)c2onc(OC)c2c1` [Compound 19, (Z)-6-(3-Fluoro-5-trifluoromethylphenyl)-6-(3-methoxy-7-methylbenzo[d]isoxazol-5-yl)-hex-5-enoic Acid Methyl Ester], in data set [1], the IC50 was found to be 0.9 µM.
`COC(=O)CCC/C=C(/c1cc(C)c(OC)c(C(=O)OC)c1)c1cc(Cl)ccc1OC` [Compound 11, (Z)-5-[1-(5-Chloro-2-methoxyphenyl)-5-methoxycarbonyl-pent-1-enyl]-2-methoxy-3-methylbenzoic Acid Methyl Ester]: the “Rat Plasma tp1/2 (min ± SD)” value in data set [2] is recorded as 0.98 ± 0.02 min. In addition, in data set [3], the CC50 is 8 µM. For the same compound, the EC50 with HIV-1RF was more than 100 µM. The half-maximal inhibitory concentration (IC50) in data set [1] is more than 100 µM.
Compound `COC(=O)c1cc(/C(=C\CCN2CCOC2=O)c2cc(F)cc(C(F)(F)F)c2)cc(C)c1OC` [Compound 7, (E)-5-[1-(3-Fluoro-5-trifluoromethylphenyl)-4-(2-oxo-oxazolidin-3-yl)-but-1-enyl]-2-methoxy-3-methylbenzoic Acid Methyl Ester] displayed a CC50 in data set [3] of 15 µM. Also, in the data set with HIV-1RF, the EC50 worked out at 8.3 µM. For the same compound, the IC50 in data set [1] turned out to be 15.7 µM.
On to `COc1ccc(/C(=C\CCN2CCOC2=O)c2cc(F)ccc2C(F)(F)F)cc1OC` [Compound 9, (E)-3-[4-(5-Fluoro-2-trifluoromethylphenyl)-4-(3,4-dimethoxyphenyl)-but-3-enyl]-oxazolidin-2-one], for which, in data set [2] (after three days), the “hydrolysis in rat plasma” value was “had not been hydrolyzed”. In data set [3], this compound displayed a CC50 of 26.7 µM. Also, the EC50 in the data set on HIV-1RF is more than 100 µM. For the same compound, the half-maximal inhibitory concentration (IC50) in data set [1] was more than 100 µM.
For the compound `COc1noc2c(C)cc(/C(=C\CCN3CCOC3=O)c3cc(C)c4oc(=O)n(C)c4c3)cc12` [Compound 68, (E)-5-[1-(3-Methoxy-7-methylbenzo[d]isoxazol-5-yl)-4-(2-oxoxazolidin-3-yl)-but-1-enyl]-3,7-dimethyl-3H-benzoxazol-2-one], the “hydrolysis in rat plasma” value in data set [2] (after 1 day) is listed as “had not been hydrolyzed”. In addition, the IC50 in data set [1] turned out to be 3.6 µM.
As for `COC(=O)CCC/C=C(/c1cc(C)c2onc(OC)c2c1)c1cc(C)c2oc(=O)n(C)c2c1` [Compound 67, (Z)-6-(3,7-Dimethyl-2-oxo-2,3-dihydro-benzoxazol-5-yl)-6-(3-methoxy-7-methyl-benzo[d]isoxazol-5-yl)-hex-5-enoic Acid Methyl Ester], the IC50 in data set [1] came out at 0.25 µM.
In the case of `COC(=O)CCC/C=C(\c1cc(F)cc(C(F)(F)F)c1)c1cc(Cl)c(OC)c(C(=O)OC)c1` [Compound 13, (E)-3-Chloro-5-[1-(3-fluoro-5-trifluoromethylphenyl)-5-methoxycarbonyl-pent-1-enyl]-2-methoxy-benzoic Acid Methyl Ester], the CC50 in data set [3] is 16.1 µM. For the same compound, the EC50 in the data set on HIV-1RF was more than 100 µM. For the same compound, in data set [1], the IC50 is more than 100 µM.
For `COC(=O)CCC/C=C(/c1cc(C)c2on(C)c(=O)c2c1)c1cc(Cl)ccc1OC` [Compound 21, (Z)-6-(5-Chloro-2-methoxyphenyl)-6-(2,3-dihydro-2,7-dimethyl-3-oxo-benzo[d]isoxazol-5-yl)-hex-5-enoic Acid Methyl Ester], in data set [2], the “Rat Plasma tp1/2 (min ± SD)” value turned out to be 0.48 ± 0.06 min. This compound also returned a CC50 in data set [3] of 13 µM. In the data set on HIV-1RF, the EC50 was more than 100 µM. In addition, the IC50 in data set [1] came out at 8.2 µM.
Take `COc1ccc(/C(=C\CCN2CCOC2=O)c2cc(F)cc(C(F)(F)F)c2)cc1OC` [Compound 8, (E)-3-[4-(3-Fluoro-5-trifluoromethylphenyl)-4-(3,4-dimethoxyphenyl)-but-3-enyl]-oxazolidin-2-one]: the “hydrolysis in rat plasma” value in data set [2] (after three days) is recorded as “had not been hydrolyzed”. Also, the CC50 in data set [3] was 14.5 µM. In the data set on HIV-1RF, the EC50 was more than 100 µM. The IC50 in data set [1] stood at 97.8 µM.
`COC(=O)CCC/C=C(\c1cc(C)c(OC)c(C(=O)OC)c1)c1cc(Cl)ccc1OC` [Compound 14, (E)-5-[1-(5-Chloro-2-methoxyphenyl)-5-methoxycarbonyl-pent-1-enyl]-2-methoxy-3-methylbenzoic Acid Methyl Ester]: in data set [2], the “Rat Plasma tp1/2 (min ± SD)” value is recorded as 0.49 ± 0.02 min. Besides, in data set [3], it took 8.3 µM to reach half-maximal cytotoxicity (CC50). Besides, the EC50 in the data set with HIV-1RF was more than 100 µM. In data set [1], the half-inhibitory concentration (IC50) was more than 100 µM.

Broadly, the IC50 is the midpoint of a concentration-inhibition curve. As usually defined, the CC50 is the concentration at which the toxic effect on the cells reaches its halfway point. A high value points to lower toxicity to the cells. One may read the EC50 as the concentration at which the effect is half-maximal.
